Assay results from US9332770B2, “Anti-listerial mixed culture and method for producing cheese” (CSK Food Enrichment B.V., priority 2011, dated 2016).

Key:
[1] = test system: Lactobacillus plantarum LMG P-26358; assay: growth profile in MRS broth substituted with various sugars; type: cell-based; conditions: for GT (generation time) / μmax (specific growth rate): 2% sugar in the MRS broth; for ability of Lb. plantarum LMG P-26358 to grow on the sugar: sugar acidification profiles
L. innocua = assay: frequency of bacteriocin resistance development; type: cell-based, Listeria innocua; conditions: 2560 au/ml bacteriocin (purified preparation) and/or 320 au/ml nisin
Description: The frequency of development of resistance in L. innocua to 2560 au/ml of the bacteriocin produced by Lb. plantarum LMG P-26358 (purified preparation) was calculated at 1.13×10^−3. […] The resistant colonies were picked off and tested for their sensitivity to the bacteriocin produced by Lb. plantarum LMG P-26358.

Row | Compound | GT (generation time) [1] [min] | μmax (specific growth rate) [1] [OD600 · hour^−1] | ability of Lb. plantarum LMG P-26358 to grow on the sugar [1] | frequency of development of resistance in L. innocua (L. innocua)
1 | O=C[C@H](O)[C@@H](O)[C@H](O[C@@H]1O[C@H](CO)[C@@H](O)[C@H](O)[C@H]1O)[C@H](O)CO [Cellobiose] | 90 | 0.2018 | capable of growing | 
2 | O=C(CO)[C@@H](O)[C@H](O)[C@H](O)CO [Fructose] | 104 | 0.174 | capable of growing | 
3 | O=C[C@H](O)[C@@H](O)[C@@H](O)[C@H](O)CO [Galactose] | 123 | 0.1473 | capable of growing | 
4 | OC[C@H]1O[C@@H](O[C@H]2[C@H](O)[C@@H](O)C(O)O[C@@H]2CO)[C@H](O)[C@@H](O)[C@H]1O (stereo partly shown) [Lactose] | 100 | 0.1815 | can grow efficiently | 
5 | OC[C@H]1O[C@H](O[C@H]2[C@H](O)[C@@H](O)[C@H](O)O[C@@H]2CO)[C@H](O)[C@@H](O)[C@@H]1O [Maltose] | 79 | 0.2277 | capable of growing | 
6 | OC[C@H]1O[C@H](OC[C@H]2O[C@H](O[C@]3(CO)O[C@H](CO)[C@@H](O)[C@@H]3O)[C@H](O)[C@@H](O)[C@@H]2O)[C@H](O)[C@@H](O)[C@H]1O [Raffinose] | 246 | 0.0734 | unable to metabolise | 
7 | OC[C@H]1O[C@@](CO)(O[C@H]2O[C@H](CO)[C@@H](O)[C@H](O)[C@H]2O)[C@@H](O)[C@@H]1O [Sucrose] | 86 | 0.2088 | capable of growing | 
8 | OC[C@H]1O[C@H](O[C@H]2O[C@H](CO)[C@@H](O)[C@H](O)[C@H]2O)[C@H](O)[C@@H](O)[C@@H]1O [Trehalose] | 92 | 0.1963 | capable of growing | 
9 | nisin |  |  |  | 2.16×10^−2
